Assay [1] deals with Bomapin mRNA in peripheral human T-cells. The assay can be described thus: Bomapin expression by quantitative RT-PCR in peripheral human T-cells. Type of assay: cell-based.
Method: PCR was performed for 30 cycles. The ethidium bromide bands corresponding to the amplified bomapin transcripts were quantified by AlphaEase program (Alpha Innotech, San Leandro, Calif., USA). Each PCR tube contained four oligonucleotides primers, two for the Bomapin and two for the internal control (S-14).
Neurotransmitters, agonists and antagonists were added and the cells were incubated at 37 C°, 5% CO2 for up to 72 hours, as indicated for individual experiments. The incubated T-cells were then collected and used for further experimentation.
Total RNA was extracted by using Trizol RNA isolation reagent (Molecular Research Center, Cincinnati, Ohio) based on the acid guanidinium thiocyanate-phenol-chloroform extraction method, according to manufacturer recommendations. RT-PCR was used to amplify the levels of endogenous Bomapin mRNA that may be present in the peripheral human T-cells and in the Jurkat cells (a human mature leukemic cell line that phenotypically resembles resting human T lymphocytes). The expression of the ribosomal protein S-14, derived from the same tissue preparations, served as an internal control. Each reaction contained four oligonucleotides primers, two for Bomapin and two for the internal control S-14. PCR conditions were: cDNA equivalent to 50 ng RNA was amplified for 30 cycles, the annealing temperature was 60° C. and the final MgCl2 concentration was 2.5 mM. […]
Assay [2] relates to normal human T-cells. Kind of assay: T-cell adhesion assay to fibronectin and laminin. Type of assay: cell-based. Particulars: for Blocking of the glutamate effect on integrin-mediated T-cell adhesion to laminin and fibronectin: Glutamate 10 nM. The method, then:
Adhesion of untreated cells (BG) serves as a control. The results are expressed as the OD405 of the lysed, fibronectin- or laminin-adherent cells remaining after incubation and repeated washings.
Adhesion of T-cells to fibronectin and laminin was assayed as follows: normal human T-cells, purified from a fresh blood sample, were suspended (1×10^6 cells/ml) in rest medium (RPMI-1640, supplemented with 10% fetal calf serum (Sigma Chemical Co., St. Louis, Mo.), 1% antibiotics, 1% glutamine (Biological Industries, Beit Haemek, Israel) and 0.4% fungizone (GibcoBRL, Life Technologies Ltd., Paisley, Scotland)). […] Following incubation the cells were washed and resuspended in adhesion medium (RPMI-1640 supplemented with 0.1% bovine serum albumin (BSA, Sigma)). The cells were then seeded in 96 well flat-bottomed microtiter plates (Falcon, Becton Dickinson, Heidelberg, Germany, 1×10^5 cells/100 μl/well pre-coated with fibronectin or laminin (ICN Biomedicals Inc., Aurora, Ohio, […], 18 hours, 4° C.). Cells treated with phorbol 12-myristate 13-acetate (PMA, Sigma, 10 ng/ml) served as a positive control. The adhesion plates were incubated (37° C., 30 minutes, 7.5% CO2 humidified incubator), and then washed several times with PBS to remove non-adherent T-cells. The adhered cells were lysed by adding 60 μl/well of lysis-substrate solution (0.5% Triton X-100 in water mixed with an equal volume of 7.5 mM p-nitrophenol-N-acetyl-β-D-glucosaminide (Sigma, St. Louis, Mo.) in 0.1M citrate buffer pH=5.0). The plates were then incubated for 18 h in a CO2-devoid 37° C. incubator, and the reaction was stopped by the addition of […] of 50 mM glycine (Sigma, St Louis, Mo.) pH=10.4, containing 5 mM EDTA. The optical density (OD) was measured at 405 nm in a standard ELISA reader. The OD was converted to actual number of cells using a standard curve performed in each experiment.

For assay [3], the system named is human T-cell lukemia (Jurkat) cells. The assay can be described thus: Bomapin expression in Jurkat cells. The class given is cell-based. An excerpt:
(§1) Total RNA was extracted by using Trizol RNA isolation reagent (Molecular Research Center, Cincinnati, Ohio) based on the acid guanidinium thiocyanate-phenol-chloroform extraction method, according to manufacturer recommendations. RT-PCR was used to amplify the levels of endogenous Bomapin mRNA that may be present in the peripheral human T-cells and in the Jurkat cells (a human mature leukemic cell line that phenotypically resembles resting human T lymphocytes). The expression of the ribosomal protein S-14, derived from the same tissue preparations, served as an internal control. Each reaction contained four oligonucleotides primers, two for Bomapin and two for the internal control S-14. PCR conditions were: cDNA equivalent to 50 ng RNA was amplified for 30 cycles, the annealing temperature was 60° C. and the final MgCl2 concentration was 2.5 mM. The Taq DNA polymerase used in this study was the BIO-X-ACT DNA polymerase (Bioline UK Ltd., London. UK). The PCR products were separated electrophoretically on a 1.5% agarose gel containing ethidium bromide, and visualized under UV light.

Assay [4] concerns resting human peripheral T-cells. Kind of assay: Gene expression analysis with Atlas human cDNA expression array. The class given is cell-based. Particulars: Glutamate 10 nM, 72 hours, autoradiography and densitometry. The source says:
FIGS. 1A-1D are tables illustrating the Glutamate-induced regulation of specific gene expression in the human T-cell, through analysis of gene expression using the atlas human cDNA expression array. […] The cDNA was hybridized to the atlas membranes according to the manual, and expression was visualized by autoradiography. […] Note the enhanced expression of T-cell genes such as Rapamycin-selective-25 KD Immunophilin (FKBP-25), Heat shock protein 40 (Hsp 40), Cathepsin E presursor, Carbonic anhydrase-related protein (carp) (ca-viii), peptidyl-glycine alpha-amidating monooxygenase presursor (pam), and axonemal dynein heavy chain (fragment) as well as of genes whose expression has been previously undetected in T cells such as Stimulator of Fe Transport (SFT), oviductal glycoprotein, Clathrin light chain, Protein Inhibitor of Activated STAT (PIAS) and Cartilage Intermediate Layer Protein (CILP) (FIG. 1A).
Hybridizations to the Atlas Human cDNA Expression Arrays membranes (Catalog No. 1.2 KIII (7850-1) and III (7855-1), Clontech Laboratories) were performed by Clonetech Laboratories, as described in the user manual. Analysis of the expression pattern of up and down regulated genes, as compared to that of untreated T-cells, was performed by Clontech, as described in their manual. […]

Assay [5] relates to cloned resting human Th2 cells (clone 401). The assay can be described thus: Cytokine secretion by ELISA, resting cloned Th2 cells. The class given is cell-based. The conditions noted are these: 10^−8 M Glutamate, no antigen stimulation, versus untreated. The method, then:
The results are expressed as pg/ml IL-4. Note the clear induction of IL-4 secretion in the Glutamate-treated cells, absent in the non-activated cells.
(§2) Human T-cell clones were prepared essentially as described by Besser M and Wank J (Besser M and Wank J, J Immunol 1999; 162:6303-306): Human PBMC were purified from whole blood by Ficoll gradient (Amersham Pharmacia Biotech, Freiburg, Germany). CD4^+ Th (T-helper) cells were isolated by using CD4 mAbs coupled to magnetic beads (Dynal, Hamburg, Germany). T cells were cultured at 1-2×10^6 cells/ml either in the presence of 1% PHA (Difco, Hamburg, Germany), 20 μg of anti-CD3 (OKT-3, Cilag, Sulzbach, Germany)-precoated plates in combination with IL-2 (20 U/ml) or IL-4 (100 U/ml), or with 100 ng/ml neurotrophins (Prepro, London, England), 20 U/ml IL-2 (Chiron, Ratingen, Germany), 100 U/ml IL-4 (Genzyme, Ruesselsheim, Germany) or 500 U/ml IFN-γ (Thomae, Bicherach an der Riss, Germany) alone. RPMI 1640 culture medium (Life Technologies, Eggenstein, Germany) was supplemented with 10% FCS (Life Technologies). […] Constitutive expression in immune cell bulk cultures was assessed immediately after cell separation, in cloned T lymphocytes after 3 days without further addition of IL-2.
(§3) Cytokine levels were measured in supernatants from Glutamate stimulated human T-cell cultured as described hereinabove. […]

In assay [6] the test system is cloned resting human Th1 cells (clone 305). The assay can be described thus: Cytokine secretion by ELISA, resting cloned Th1 cells. The class given is cell-based. The conditions noted are these: 10^−8 M Glutamate, versus untreated. The method, then: The results are expressed as pg/ml IL-10.
The results are expressed as pg/ml IL-4.
as §2, with “Technologies). Alloprimed PBMC were seeded at 0.4 cell/well on allogeneic specific feeder layer.” for “Technologies).”
as §3

Assay [7] deals with cloned human Th0 cells (clone 234). The assay can be described thus: IFN-γ secretion by ELISA, activated (alloprimed) cloned Th0 cells. The conditions noted are these: 20 hours, 10^−8M Glutamate plus mismatched allopriming B cells, versus antigen stimulation alone. The class given is cell-based. The method, then: (§4) The results are expressed as pg/ml IFN-γ.
as §2, with “Technologies). Alloprimed PBMC were seeded at 0.4 cell/well on allogeneic specific feeder layer.” for “Technologies).”
as §3
(An ELISA detects its analyte on a solid surface through an enzyme-linked reagent.)

The test system of assay [8] is cloned human Th1 cells (clone 305). The assay can be described thus: IFN-γ secretion by ELISA, activated (alloprimed) cloned Th1 cells. Type of assay: cell-based. Particulars: 20 hours, 10^−8M Glutamate plus mismatched allopriming B cells, versus antigen stimulation alone. The method, then: as §4
as §2, with “Technologies). Alloprimed PBMC were seeded at 0.4 cell/well on allogeneic specific feeder layer.” for “Technologies).”
as §3

Assay [9] has as its system normal human T-cells. Kind of assay: In-vitro chemotactic migration assay towards SDF-1. The class given is cell-based. The conditions noted are these: pre-treatment 66 hours, Glutamate 10^−8, fibronectin-coated filters. The method, then: FIG. 8 illustrates the Glutamate-induced migration of normal human T-cells towards the chemokine SDF-1. […] The cells in each experimental group were counted by FACSORT. The results are expressed as the number of fluorescently-labeled migrating Glutamate-treated T-cells vs. untreated controls (Untreated).
The cells were then washed, resuspended in adhesion medium, and added to the upper chambers (2×10^5 cells per 100 μl well) of a 24-well chemotaxis microchamber plate (Corning Inc., Corning, N.Y.). The two compartments of the microchambers were separated by polycarbonate filters ([…]) pre-coated with fibronectin or laminin ([…], about 1.5 hour, 37° C.). The lower chambers contained adhesion medium, which was supplemented, where indicated, with 100-250 ng/ml of the chemokine stromal cell-derived factor 1a (SDF-1a, Peprotech Inc., Rocky Hill, N.J.). The chemotaxis microchamber plate was incubated (3 hours, 37° C., 7.5% CO2 humidified incubator), the filter-containing upper chambers were gently removed and the contents of the individual lower chambers (containing the migrated cells) thoroughly mixed by pipetting and transferred into clean tubes. The number of cells in each tube was determined by FACSORT. Counting time for all the experimental groups was two minutes. […]

Assay [10] has as its system GluR3 mRNA in normal human T-cells. The assay can be described thus: GluR3 mRNA expression by RT-PCR. The class given is cell-based. Particulars: Glutamate 10 mM, 24 hours.
Excerpt: FIGS. 10A and 10B are ethidium bromide stained gels of RT-PCR amplified cDNA from two similar experiments.
as §1, with “from cultured T-cells” for “by”, “RT-PCR was used to amplify the levels of endogenous Bomapin mRNA that may be present in the peripheral human T-cells and in the Jurkat cells (a human mature leukemic cell line that phenotypically resembles resting human T lymphocytes).” left out, “cell” for “tissue”, “GluR3” for “Bomapin”
GluR3—5′[…] 3′ (SEQ. ID NO: 8) and 5′ […] 3′ (SEQ ID NO: 9) corresponding to nucleotides 699-718 (sense) and 1312-1331 (antisense) respectively. The predicted size of the band is […].

Assay [11] deals with human peripheral lymphocytes. Particulars: cited from earlier work.
Where [12] appears, read: CNQX added to Glutamate during incubation.
The mark [13] stands for this setting: 10^−8M Glutamate, 30 minutes, versus untreated (BG).
The mark [14] stands for this setting: PHA or mAb activated human peripheral lymphocytes.

The structures appear in SMILES notation. “Also recorded” adds a separate entry of the source.

For the molecule `N#Cc1cc2[nH]c(=O)c(=O)[nH]c2cc1[N+](=O)[O-]` [CNQX], the “Glutamate-induced Bomapin transcripts in the presence of antagonist” value in assay [1] (T-cells treated with Glutamate in the presence of CNQX) is reported as “absence of detectable Bomapin transcripts”. In [2] (setting [12]), the “Effect on Glutamate-mediated fibronectin binding” value is given as “strongly inhibits” and the “Effect on Glutamate-mediated laminin binding” value is reported as “strongly inhibits”. The “Blocking of the glutamate effect on integrin-mediated T-cell adhesion to laminin and fibronectin” value in assay [2] is listed as “blocked specifically”.

Regarding `N[C@@H](CCC(=O)O)C(=O)O` [Glutamate], in assay [1] (Glutamate 10 nM, 72 hours, 30 PCR cycles, S-14 internal control), the “Bomapin mRNA level versus untreated cells” value is on record as “about 6 fold”. Moreover, the Bomapin expression entry in assay [3] is “induces expression”. In addition, in assay [4], the “Differential pattern of gene expression versus untreated cells” value is on record as “induced the over expression of mRNA encoding for several genes; also recorded: down-regulated the expression of others”. Further, the IL-4 secretion entry in [5] was “strong release of IL-4”. In [6], the “IL-4 secretion ("forbidden" cytokine)” value is recorded as “significant induction” and the “IL-10 secretion ("forbidden" cytokine)” value was “significant induction”. Further, the IFN-γ secretion entry in [7] was “additional significant IFN-γ secretion”. Also, in [8], the IFN-γ secretion result is given as “additional significant IFN-γ secretion”. Moreover, in [2] (setting [13]), the “T-cell adhesion to fibronectin” value is “significant increase” and the “T-cell adhesion to laminin” value is “significant increase”. In addition, in assay [9], the “Migration towards the chemoattractant SDF-1 (number of migrating cells)” value is on record as “significantly augments”. Besides, in assay [10], the “RT-PCR-amplified GluR3 cDNA transcripts” value is recorded as “absence of RT-PCR-amplified GluR3 Glutamate receptor cDNA transcripts”. The “Ca++ influx and proliferation in activated lymphocytes” value in [11] (setting [14]) was “induction of Ca^++ influx and proliferation”. Moreover, the “Effect on unstimulated, resting lymphocytes” value in assay [11] (high levels (1 mM) of Glutamate) was “no effect”.

For `O=C(O)c1cc(=O)c2ccccc2[nH]1` [KYNA, reference compound], in assay [11] (setting [14]), the “Effect on Glutamate potentiation in activated lymphocytes” value was “inhibition of Glutamate potentiation”.

As to `NS(=O)(=O)c1cccc2c1c([N+](=O)[O-])cc1nc(O)c(O)nc12` [NBQX, reference compound], the “Blocking of the glutamate effect on integrin-mediated T-cell adhesion to laminin and fibronectin” value in assay [2] was “blocked specifically”. For the same molecule, in assay [11] (setting [14]), the “Effect on Glutamate potentiation in activated lymphocytes” value was “inhibition of Glutamate potentiation”.

(Values after patent US20050214217A1 (priority 2004, published 2005).)
